Assay results from patent US10435371B2, “Multifunctional aminoquinoline therapeutic agent” (LOHOCLA RESEARCH CORPORATION, priority 2014, dated 2019).

Key:
[1] = test system: rats treated with streptozotocin; test: Combination with aspirin, STZ-induced neuropathic pain (von Frey); assay type: in vivo, rat; conditions: aspirin 25 mg/kg, 60 min before test; FIG. 16
Method: After administration of streptozotocin (STZ) as described in Example 5, rats were tested for allodynia using a von Frey apparatus. Sixty minutes prior to testing, rats were divided into four groups. Group 1 received vehicle; group 2 received DCUKA; group 3 received aspirin; and group 4 received a combination of DCUKA and aspirin.

[2] = test system: alcohol-dependent male Wistar rats; test: Alcohol deprivation model of relapse drinking in alcohol-dependent rats; assay type: in vivo, rat; conditions: for Relapse drinking (alcohol intake after deprivation): FIG. 17
Method: This model is thoroughly described in a paper by (Spanagel and Holter, 1999). The model consists of a conditioning phase where individually housed male Wistar rats are allowed ad libitum access to food and 0, 5, 10 and 20% alcohol solutions in a four-bottle choice paradigm. The rats are weighed every 3rd and 4th day and food and fluid consumption is measured. The positions of bottles are changed once a week and after two months of continuous alcohol access, rats are deprived of alcohol for two weeks. After the deprivation phase, all alcohol solutions are presented again for 5 weeks and the procedure is repeated for ˜1 year. At this point an alcohol deprivation phase is instituted. Pre-deprivation (baseline) drinking is recorded for 3-4 days and then all alcohol is taken from the animals and they are only given water to drink for two weeks. Following alcohol deprivation, alcohol intake (total grams of ethanol/kg body weight) and water intake (ml/kg body weight) are measured daily. The alcohol preference ratio is calculated as (ethanol consumption [g/kg])/(water consumption [ml/kg]).
For this experiment, animals were divided into groups of 6-8 rats such that the mean baseline total alcohol intake was approximately the same (˜2.8 g/kg/day) across all groups. Baseline drinking was monitored followed by 14 days of alcohol deprivation. Each animal then received i.p. injections of DCUK-OEt twice daily at 12 hour intervals starting at 7 PM prior to the reintroduction of ethanol for a total of 3 (20 mg/kg) or 5 injections (75 mg/kg). Acamprosate, an already marketed agent for reducing relapse, was used as a positive control and four doses of 50 mg/kg or 200 mg/kg were injected over a two-day period. Alcohol bottles were re-introduced after the first (acamprosate) or second (DCUK-OEt) injection.

[3] = target: T1, GABA-A receptors (α1, β2, γ2s subunits) (UniProt P18508+P47870+P62813); test: Two-electrode voltage clamp, GABA-A receptors expressed in Xenopus oocytes; assay type: cell-based, rat α1 and γ2s, human β2; conditions: for Efficacy among five DCUK derivatives: potentiation of GABA response, FIG. 4C
T1 construct: expressed in transfected cells; host or cells: Xenopus laevis oocytes injected with capped cRNAs (α1:β2:γ2s 2:2:20 ng)
Method: Xenopus laevis frogs were obtained from Nasco (Fort Atkinson, Wis., USA). The complementary DNAs encoding the GABAA subunits rat α1 and γ2s and human β2 were provided by Dr. M. H. Akabas and Dr. Paul Whiting, respectively. The in vitro transcription of α1, β2, and γ2s subunits was performed using mMessage mMachine® (Life Technologies, Grand Island, N.Y.). After isolation of Xenopus laevis oocytes, they were injected with capped complementary RNAs encoding α1, β2, and γ2s subunits in a ratio 2:2:20 ng. The injected oocytes were incubated at 15° C. in sterilized Barth's solution [MBS; composition: 88 mM NaCl, 1 mM KCl, 10 mM HEPES, 0.82 mM MgSO4, 2.4 mM NaHCO3, 0.91 mM CaCl2), and 0.33 mM Ca(NO3)2, pH 7.5] for 3-5 days before recording. All surgery was performed according to an approved institutional protocol. The responses of GABAARs expressed in oocytes were studied through two-electrode voltage clamp (Oocyte Clamp OC-725C, Warner Instruments, Hamden, Conn.), recording through a POWERLAB 4/30 system (ADInstruments, Colorado Springs, Colo.). The oocyte was placed in a chamber perfused with MBS, and voltage-clamped at −70 mV.

cannabinoid CB1 receptor = target: T2, cannabinoid CB1 receptor (Homo sapiens, UniProt P21554); test: cAMP accumulation, HeLa cells transfected with CB1 receptor, D1 receptor and AC7; assay type: cell-based; conditions: for Effect on cAMP accumulation in the presence of dopamine: CB1 receptor, D1, AC7, DCUK-OEt 10 μM, ACEA 10 μM, FIG. 1
T2 construct: expressed in transfected cells; host or cells: HeLa (ATCC), calcium phosphate transient transfection

[4] = test system: rats treated with Complete Freund's Adjuvant; test: Combination with morphine, CFA-induced thermal hyperalgesia (radiant heat paw withdrawal test); assay type: in vivo, rat; conditions: thermal hyperalgesia after CFA
Method: Thermal Hypersensitivity Test (Radiant Heat Paw Withdrawal Test). Rats were placed in clear plastic chambers on a glass surface and were habituated for 15 minutes before testing. Thermal sensitivity was measured by using paw withdrawal latency to a radiant heat stimulus. A radiant heat source (i.e., infrared) was activated with a timer and focused onto the plantar surface of the left hind paw. A motion detector that halted both lamp and timer when the paw was withdrawn determined paw withdrawal latency. The latencies were measured before and after drug or vehicle administration. A maximum cutoff of 33 seconds was used to prevent tissue damage.

[5] = target: GABA site, GABA-A Receptor; test: PDSP radioligand displacement, [^3H]Muscimol; design: species or system rat; conditions: read-out: Binding constant Ki, GABA site, GABA-A Receptor
ethanol dependent rats = test: Operant responding for alcohol in ethanol vapor-exposed dependent rats; assay type: in vivo, rat; conditions: FIG. 18
Text: This example illustrates that ethanol dependent rats are motivated to work for ethanol reward during a period of forced abstinence and that DCUK-OEt reduces responding for the alcohol reward.
The methods used in this study are extensively described in (Vendruscolo et al., 2012). The rats were first trained to self-administer ethanol in an operant chamber. The rats were given free-choice access to alcohol (10% w/v) and water for 1 day in their home cages to habituate them to the taste of alcohol. The rats were then subjected to an overnight session in the operant chambers with access to one lever that delivered water (FR1). Food was available ad libitum during this training. After 1 day off, the rats were subjected to a 2 hour session (FR1) for 1 day and a 1 hour session (FR1) the next day, with one lever delivering alcohol. All of the subsequent sessions lasted 30 minutes, and two levers were available (left lever: water; right lever: alcohol). Once trained, the rats were made dependent by chronic, intermittent exposure to alcohol vapors (Gilpin et al., 2008). They underwent cycles of 14 hours of ethanol exposure (blood alcohol levels during vapor exposure ranged between 150 and 250 mg %) and 10 hours in the absence of ethanol vapor, during which behavioral testing for acute withdrawal occurred (i.e., 6-8 hours after vapor was turned off, when brain and blood alcohol levels were negligible). Nondependent rats were those not exposed to alcohol vapor. Pharmacological testing occurred after at least 2 months of vapor exposure, when full dependence was observed. DCUKA-OEt was administered i.p. at the doses specified in FIG. 18, sixty minutes prior to placing the animal in the operant chamber. The vehicle for DCUK-OEt was injected in certain animals as a control.

[6] = test system: rats treated with cisplatin; test: Reversal of cisplatin-induced neuropathic pain (von Frey mechanical pain threshold); assay type: in vivo, rat; conditions: cisplatin i.p. 7 mg/kg total, day 14; 30 mg/kg oral (equimolar to DCUKA and BCUKA); 1 and 2 hours; FIG. 6
[7] = test system: rats treated with Complete Freund's Adjuvant; test: Combination with morphine, CFA-induced pain, mechanical pain threshold; assay type: in vivo, rat; conditions: FIG. 15 Panel A
delta opiate receptor [8] = target: T3, delta opiate receptor (Homo sapiens, UniProt P41143); test: cAMP accumulation, HEK293 cells transfected with DA receptor, delta opiate receptor and AC7; assay type: cell-based; design: expressed in transfected cells; host or cells: HEK293 (ATCC), calcium phosphate transient transfection; conditions: naltrindole 10 μM
[9] = test system: rats treated with Complete Freund's Adjuvant; test: Naltrindole reversal of the effect of DCUKA on CFA-induced neuropathic pain; assay type: in vivo, rat
Method: Rats were tested for baseline mechanical pain threshold (von Frey test) and given an intraplantar injection of Complete Freunds Adjuvant (CFA) in the left hind paw.

delta opiate receptor [10] = target: T3, delta opiate receptor; test: cAMP accumulation, HeLa cells transfected with D1 receptor, DOR and AC5; assay type: cell-based; design: expressed in transfected cells; conditions: not shown

T1 sequence (P62813 28-455): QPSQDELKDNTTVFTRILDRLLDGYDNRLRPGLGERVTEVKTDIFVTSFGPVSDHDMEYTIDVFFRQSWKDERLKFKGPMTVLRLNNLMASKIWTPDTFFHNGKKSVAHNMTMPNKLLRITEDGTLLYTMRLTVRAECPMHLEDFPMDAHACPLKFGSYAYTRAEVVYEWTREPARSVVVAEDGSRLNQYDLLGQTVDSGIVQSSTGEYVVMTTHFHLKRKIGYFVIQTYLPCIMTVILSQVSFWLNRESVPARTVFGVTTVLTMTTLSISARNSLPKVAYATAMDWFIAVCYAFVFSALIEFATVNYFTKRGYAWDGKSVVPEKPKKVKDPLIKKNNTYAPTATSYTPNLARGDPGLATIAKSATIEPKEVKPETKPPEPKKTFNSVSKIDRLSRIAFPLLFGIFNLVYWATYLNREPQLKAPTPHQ
T1 sequence (P47870 26-474 isoform P47870-1 limits assumed): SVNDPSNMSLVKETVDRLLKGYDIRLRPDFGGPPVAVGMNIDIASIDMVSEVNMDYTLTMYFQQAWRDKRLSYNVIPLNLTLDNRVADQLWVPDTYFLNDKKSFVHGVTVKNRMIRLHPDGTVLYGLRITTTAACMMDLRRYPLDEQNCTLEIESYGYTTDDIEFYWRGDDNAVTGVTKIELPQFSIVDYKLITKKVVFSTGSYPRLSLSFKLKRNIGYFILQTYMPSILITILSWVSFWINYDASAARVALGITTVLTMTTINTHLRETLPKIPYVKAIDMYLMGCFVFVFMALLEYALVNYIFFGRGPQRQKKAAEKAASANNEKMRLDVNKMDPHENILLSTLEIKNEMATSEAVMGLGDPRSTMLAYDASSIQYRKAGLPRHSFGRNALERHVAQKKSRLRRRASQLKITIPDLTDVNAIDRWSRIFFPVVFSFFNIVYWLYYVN
T1 sequence (P18508 39-466): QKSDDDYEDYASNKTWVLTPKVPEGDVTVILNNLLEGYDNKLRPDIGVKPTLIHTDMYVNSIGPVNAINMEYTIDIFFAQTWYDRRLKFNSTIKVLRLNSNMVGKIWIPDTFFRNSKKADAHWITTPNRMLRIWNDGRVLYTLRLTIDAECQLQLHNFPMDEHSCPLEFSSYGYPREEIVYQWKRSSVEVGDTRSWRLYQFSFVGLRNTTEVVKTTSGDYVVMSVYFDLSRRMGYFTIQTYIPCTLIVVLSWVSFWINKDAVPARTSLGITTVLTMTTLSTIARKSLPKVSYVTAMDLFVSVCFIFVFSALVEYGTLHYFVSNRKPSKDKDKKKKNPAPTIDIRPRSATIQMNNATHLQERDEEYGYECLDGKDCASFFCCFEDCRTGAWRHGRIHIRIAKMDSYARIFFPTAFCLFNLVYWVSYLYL
T2 sequence (P21554 whole entry): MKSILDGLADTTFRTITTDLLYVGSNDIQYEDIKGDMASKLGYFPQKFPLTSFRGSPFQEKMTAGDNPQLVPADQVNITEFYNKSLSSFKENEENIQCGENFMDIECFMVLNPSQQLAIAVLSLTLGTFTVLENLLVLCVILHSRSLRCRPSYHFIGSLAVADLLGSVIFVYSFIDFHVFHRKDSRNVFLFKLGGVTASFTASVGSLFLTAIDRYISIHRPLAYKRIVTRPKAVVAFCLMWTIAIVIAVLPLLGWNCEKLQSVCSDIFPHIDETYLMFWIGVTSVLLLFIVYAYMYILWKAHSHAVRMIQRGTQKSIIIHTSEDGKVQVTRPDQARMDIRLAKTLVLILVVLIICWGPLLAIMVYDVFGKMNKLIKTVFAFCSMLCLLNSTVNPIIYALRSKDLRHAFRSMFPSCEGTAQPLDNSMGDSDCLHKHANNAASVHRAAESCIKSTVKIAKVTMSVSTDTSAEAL
T3 sequence (P41143 whole entry): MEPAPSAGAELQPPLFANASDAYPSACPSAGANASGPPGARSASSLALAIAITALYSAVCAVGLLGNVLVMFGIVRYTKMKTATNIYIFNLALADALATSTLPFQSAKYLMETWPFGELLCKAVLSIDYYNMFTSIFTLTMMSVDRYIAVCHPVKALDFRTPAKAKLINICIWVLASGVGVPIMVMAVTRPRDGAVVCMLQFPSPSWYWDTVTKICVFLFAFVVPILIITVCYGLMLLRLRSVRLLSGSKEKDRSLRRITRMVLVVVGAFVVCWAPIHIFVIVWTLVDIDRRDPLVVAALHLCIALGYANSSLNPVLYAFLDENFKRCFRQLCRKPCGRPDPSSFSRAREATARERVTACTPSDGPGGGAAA

For `CC(=O)Oc1ccccc1C(=O)O` [aspirin, reference compound], the “Effect on allodynia, alone” value [1] was “do not have any significant effect on allodynia”.
With `CC(=O)NCCCS(=O)(=O)O` [acamprosate, reference compound] the “Relapse drinking (alcohol intake after deprivation)” value (“Relapse drinking” below) ([2]; acamprosate 50 mg/kg, four doses over two days, positive control) was “transient, but significant, reduction in relapse drinking”.
In the case of `CCCC(=O)c1cc(NC(=O)N(c2ccccc2)c2ccccc2)c2c(Cl)cc(Cl)cc2n1` [DCUK-butanone, 3-(2-Butyryl-5,7-dichloroquinolin-4-yl)-1,1-diphenylurea], the “Efficacy among five DCUK derivatives” value [3] is reported as “most efficacious”.
In the case of `CCOC(=O)c1cc(NC(=O)N(c2ccccc2)c2ccccc2)c2c(Cl)cc(Cl)cc2n1` [DCUK-OEt], the “Character of action at the CB1 cannabinoid receptor” value (cannabinoid CB1 receptor; AC7, alone and together with ACEA) is reported as “weak partial agonist”, the “Effect on cAMP accumulation in the presence of dopamine” value (cannabinoid CB1 receptor) is reported as “significant increase in cAMP accumulation” and the “Character of action at the GABA-A receptor” value ([3]; FIG. 4A) is reported as “positive allosteric modulators (PAM)”. For the same molecule, the GABA-induced chloride currents ([3]; co-applied with EC10 GABA, FIG. 4A) was “significantly enhanced GABA-induced currents”, the “Efficacy among five DCUK derivatives” value [3] was “most efficacious” and the “Chloride currents, compound alone” value ([3]; without GABA, FIG. 4A) was “no effect on chloride currents by themselves”. The Antihyperalgesic response ([4]; 6.4 mg of DCUK-OEt combined with 0.2 mg/kg morphine) was 40%, the Ki [5] was 1700 ± 300 nM and the “Relapse drinking” value ([2]; 20 mg/kg i.p. twice daily, 3 injections) was “transient, but significant, reduction in relapse drinking”. For the same molecule, the Water consumption ([2]; 75 mg/kg DCUK-OEt, data not shown) was “increased consumption of water”, the “Relapse drinking” value ([2]; 75 mg/kg i.p. twice daily, 5 injections) was “almost complete abolition of alcohol intake” and the Alcohol self-administration (ethanol dependent rats; 20 mg/kg i.p., 60 min before session, ethanol vapor-exposed rats) was “brought the ethanol vapor exposed rats down to the same level of self-administration as non-ethanol pretreated control rats”. The “Lever pressing for ethanol” value (ethanol dependent rats; 35 and 50 mg/kg i.p., alcohol-dependent rats) was “reduced lever pressing for ethanol to even lower levels” and the “Lever pressing for water” value (ethanol dependent rats; all doses tested, alcohol dependent rats) was “No effect”.
`NCC1(CC(=O)O)CCCCC1` [Gabapentin, gabapentin, reference compound] was tested, and the “Mechanical pain threshold, ratio to baseline” value [6] was “did not significantly reverse”.
With `CCCCC/C=C\C/C=C\C/C=C\C/C=C\CCCC(=O)NCCCl` [ACEA, reference compound] the “Effect on cAMP accumulation in the presence of dopamine” value (cannabinoid CB1 receptor) was “increased the accumulation of cAMP”.
For `CN1CC[C@]23c4c5ccc(O)c4O[C@H]2[C@@H](O)C=C[C@H]3[C@H]1C5` [morphine, reference compound], the Antihyperalgesic response ([4]; morphine alone 0.2 mg/kg) was roughly 20% and the “Analgesia, each agent alone at the dose used for the combination” value [7] was “ineffective in producing analgesia”.
For `Oc1ccc2c3c1O[C@H]1c4[nH]c5ccccc5c4C[C@@]4(O)[C@@H](C2)N(CC2CC2)CC[C@]314` [Naltrindole, reference compound], the “Effect of DOR antagonist on the BCUKA-induced cAMP increase” value (delta opiate receptor [8]) was “reversed”, the “Effect of intraplantar naltrindole on the DCUKA effect” value ([9]; Naltrindole 10 μg per paw s.c. 45 min after DCUKA 50 mg/kg oral, tested 15 min later) was “reversed the anti-allodynic effect of DCUKA” and the “Effect of naltrindole alone on pain threshold” value ([9]; Naltrindole 10 μg per paw with vehicle) was “no effect on its own”. For the same molecule, the “Effect of DOR antagonist on the DCUKA inhibition of cAMP accumulation” value (delta opiate receptor [10]) was “reversed”.
